Reference: patent US20230181493A1, “BIOMARKERS RELATED TO PARKINSON'S DISEASE AND METHODS OF USING THE SAME” (SENDA BIOSCIENCES, INC., priority 2020, published 2023)
One block for each compound: values may come before it.

What was measured:
[1] = biological target: T1, Tyrosine decarboxylase (tdc) (Enterococcus faecalis, UniProt P0DTQ4); assay: Inhibition of tyrosine decarboxylase in vitro; format: biochemical; conditions: 60 min preincubation of tdc with inhibitor at room temperature; dopamine formed from levodopa, LC-MS
T1 construct: made in house
T1 sequence (P0DTQ4 1-620): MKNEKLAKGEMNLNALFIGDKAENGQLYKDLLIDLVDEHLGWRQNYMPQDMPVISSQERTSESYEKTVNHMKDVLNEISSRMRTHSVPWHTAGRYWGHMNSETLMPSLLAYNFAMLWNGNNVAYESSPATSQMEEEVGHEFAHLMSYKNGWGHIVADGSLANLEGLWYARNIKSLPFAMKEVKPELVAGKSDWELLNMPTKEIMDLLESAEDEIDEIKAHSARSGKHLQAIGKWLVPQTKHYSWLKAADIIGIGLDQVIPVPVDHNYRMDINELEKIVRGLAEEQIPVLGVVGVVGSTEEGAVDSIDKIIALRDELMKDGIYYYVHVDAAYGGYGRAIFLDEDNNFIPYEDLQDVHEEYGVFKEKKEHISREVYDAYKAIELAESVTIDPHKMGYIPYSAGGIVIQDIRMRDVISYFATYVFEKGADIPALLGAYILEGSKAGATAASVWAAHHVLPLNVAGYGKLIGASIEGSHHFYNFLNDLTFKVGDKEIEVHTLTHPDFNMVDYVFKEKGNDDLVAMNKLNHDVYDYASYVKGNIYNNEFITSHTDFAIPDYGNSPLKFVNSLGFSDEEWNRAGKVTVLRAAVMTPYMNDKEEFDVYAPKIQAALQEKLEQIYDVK
Description: Tyrosine decarboxylase (tdc) was obtained by following a previously published literature procedure (Rekdal et al., Science 2019; 364(6445):eaau6323). The tdc (220 nM final concentration) was thawed on ice and then mixed with pyridoxal-5-phosphate (2.2 mM final concentration) in 200 mM sodium acetate buffer, pH 5.5 optionally containing 1 mM TCEP. To this mixture was added inhibitor at a final concentration of 1000, 333, 111, 37, 12, 4.1, 1.4, or 0 μM (final volume: 100 μL; inhibitor was 100-fold concentrated in a solution of DMSO, H2O, or DMSO:H2O (1/1 v/v)). The protein-inhibitor mixture was incubated at room temperature for 60 min. 6 μL of this mixture was then withdrawn from each solution and mixed with 54 μL of 10 mM levodopa in 200 mM sodium acetate buffer pH 5.5. The final concentration of the reaction was 22 nM tdc, 220 μM pyridoxal-5-phosphate, 9 mM levodopa in 200 mM sodium acetate buffer pH 5.5 with 0-100 μM inhibitor. The reaction proceeded for 5 min at room temperature before being quenched by the addition of 540 μL acetonitrile containing 0.1% (v/v) formic acid supplemented with 200 nM tolbutamide as an internal standard. The reactions were centrifuged (3,000 g, 10 min), and then 100 μL of each supernatant was transferred to a fresh plate. 100 μL of acetonitrile containing 0.1% (v/v) formic acid supplemented with 200 nM tolbutamide was added. An external standard curve containing 0-150 μM dopamine was prepared in the exact same manner.
Dopamine formed in each reaction was quantified by using an Agilent 6470 triple quadrupole mass spectrometer equipped with an Acquity UPLC. Mobile phase A consisted of H2O containing 10 mM ammonium formate, pH 3.0 and supplemented with 0.1% (v/v) formic acid. Mobile phase B consisted of acetonitrile containing 10 mM ammonium formate, pH 3.0 and supplemented with 0.1% (v/v) formic acid. 5 μL of each sample was injected onto a BEH Amide column (Waters Corporation, 2.1×50 mm, 1.7 μm). The gradient was set to: 100% mobile phase B at 0 min, decreasing linearly to 65% mobile phase B by 1.5 min, held constant at 65% mobile phase B until 2.5 min, ramped back up to 100% mobile phase B by 2.6 min, and held constant at 100% mobile phase B until 4.2 min. The flow rate was 0.6 mL/min. The dopamine was detected by using the mass spectrometer in multiple reaction monitoring (MRM) mode, quantifying the transition 154.1 to 137.0 m/z in positive mode. The fragmentor setting was 74, the collision energy was 9, and the cell accelerator voltage was 4, and the dwell time was 20. Tolbutamide was monitored using MRM and quantifying the transition of 271.1 to 91.0 m/z in positive mode. The fragmentor setting was 88, the collision energy was 37, and the cell accelerator voltage was 4, and the dwell time was 20.
The amount of dopamine was quantified by normalizing the area to the area of tolbutamide internal standard within each sample. This relative response was then compared to that of the standard curve to obtain the dopamine formed within each sample. The concentration of dopamine formed as a function of the inhibitor concentration at the preincubation stage was plotted in GraphPad Prism 8, and the IC50 was calculated using the non-linear fit for the standard IC50 curve equation “[inhibitor] vs response (three parameters).”

[2] = tested on: hepatocytes
Description: In a 50 mL falcon tube, 40 mL of Gibco hepatocyte thawing medium was added. The remaining 10 mL of medium was used to gently transfer hepatocytes into a falcon tube using a wide-mouth pipette. The mixture was centrifuged briefly at low speed (100 g for 30 sec) to gather cells at the base of the tube. The supernatant was removed from the tube then bleached and the liquid discarded, leaving behind the cell pellet in the tube. About 4 mL of Gibco Williams E phenol-free medium was added to the tube to get a final count of 1 mil/mL, tilting gently by hand to scatter the cell pellet. […] Count was repeated twice and averaged to calculate the concentration in solution. Count of 1.2 mil/mL was found, and another 800 μL of incubation medium was added to the tube to bring the count to 1 mil/mL. Four wells of a 24 well plate were plated with 1 mL per well, and the plate was gently agitated to distribute a uniform number of cells per well. The plate was pre-incubated for about 10 min at 37° C. […] The plates were agitated to distribute compounds, then 200 μL aliquots were taken from each well and treated with an equal volume of ice-cold acetonitrile to quench catalysis and monitor progress. The quenching and sampling procedure was repeated at 4 h for 4-h samples. The quenched samples were centrifuged at 4000 g for 10 min at 4° C. and the supernatants were saved for analysis.

[3] = tested on: microbial enzyme TDC in the rat microbiome; assay: In vivo metabolism of levodopa: levodopa in circulation after inhibition of microbial TDC; conditions: oral gavage, whole blood, LC-MS/MS
From the text: The microbial enzyme TDC in the rat microbiome was inhibited with alpha-fluoromethyltyrosine (AFMT). On day 0, male Sprague Dawley rats were prophylactically treated with single oral gavage of vehicle, carbidopa, carbidopa+S-AFMT, or carbidopa+R-AFMT, respectively. On day 1, solutions of levodopa, carbidopa, S-AFMT in 1% methyl cellulose (w/v), and 1% ascorbic acid (w/w) in deionized (DI) water were applied by oral gavage to male Sprague Dawley rats.
Whole blood samples were drawn and levodopa concentrations were determined by LC-MS/MS at 0, 5, 10, 15, 30, 45, 90, and 180 min post-application (12 animals per time point).

[4] = tested on: E. faecalis v583; assay: Inhibition of Enterococcus faecalis decarboxylation activity in vitro; format: cell-based; conditions: levodopa remaining in E. faecalis v583 culture, BHI broth pH 5, 1.5 mM levodopa, 24 h at 37° C., anaerobic, read-out: IC50 @ 60 min
Description: A vial of 200 μL of E. faecalis v583 was removed from a −80° C. freezer and thawed in an anaerobic chamber containing an atmosphere of either 95/5 N2/H2 (v/v) or 90/5/5 N2/H2/CO2 (v/v). 200 μL was inoculated into 10 mL of sterile, anaerobic BHI broth, pH 5 (adjusted with NaOH). The culture was grown overnight at 37° C. under anaerobic conditions.
After overnight incubation, 40 μL of the saturated starter culture was mixed with 744 μL of sterile, anaerobic BHI broth, pH 5 that had been supplemented with 1.5 mM levodopa. To this was added 16 μL of a 50-fold concentrated stock solution of inhibitor that had been dissolved in either DMSO, H2O, or DMSO:H2O (1:1 v/v). The final concentration of the inhibitor in each condition was 0, 0.001, 0.01, 0.1, 1, 10, or 100 μM. The contents of each incubation were mixed, and then 100 μL was transferred into a fresh 96-well plate. […]
The samples were analyzed by using an Agilent 6470 triple quadrupole mass spectrometer equipped with an Acquity UPLC. […] The levodopa was detected by using the mass spectrometer in multiple reaction monitoring (MRM) mode, quantifying the transition 198.1 to 151.9 m/z in positive mode. […] Tolbutamide was monitored using MRM and quantifying the transition of 271.1 to 91.0 m/z in positive mode. […]
The amount of levodopa was quantified by normalizing the area to the area of tolbutamide internal standard within each sample. […]

[5] = carbidopa administered with levodopa; cited from earlier work

- IC50 @ 60 min [1]: Minor inhibition
SMILES: NC(Cc1ccc(O)cc1)(C(=O)O)C(F)F (stereo not shown) [Compound K, 2-amino-3,3-difluoro-2-(4-hydroxybenzyl)propanoic acid]

- IC50 [1]: 82.3 µM
- IC50 [4]: 18.5 µM
SMILES: N[C@](CF)(Cc1ccc(O)cc1)C(=O)O [T, (R)-2-amino-3-fluoro-2-(4-hydroxybenzyl)propanoic acid]

- IC50 [1]: 4 µM
- IC50 [4]: 2 µM
SMILES: N[C@@](CF)(Cc1ccc(O)cc1)C(=O)O [S, (S)-2-amino-3-fluoro-2-(4-hydroxybenzyl)propanoic acid]

Second part, the compound before the results:

SMILES: COc1ccc(CCC(N)(CF)C(=O)O)cc1 (stereo not shown) [Compound U, 2-amino-2-(fluoromethyl)-4-(4-methoxyphenyl)butanoic acid]
- IC50 [1]: > 1000 µM

SMILES: NC(CF)(Cc1cccc(O)c1)C(=O)O (stereo not shown) [Compound R, 2-amino-3-fluoro-2-(3-hydroxybenzyl)propanoic acid]
- IC50 @ 60 min [1]: Minor inhibition

SMILES: NCCc1cccc(O)c1 [meta-tyramine]
- metabolites produced by hepatocytes [2]: metabolic derivatives of meta-tyramine (e.g., 3-hydroxyphenylacetic acid and meta-tyramine-O-sulfate) were produced

SMILES: N[C@@](CF)(Cc1ccc(O)cc1)C(=O)O [AFMT, alpha-fluoromethyltyrosine]
- levels of levodopa at the earliest timepoint assessed [3]: elevated levels of levodopa at the earliest timepoint assessed

SMILES: CC(Cc1ccc(O)c(O)c1)(NN)C(=O)O (single isomer, unassigned; (-)) [carbidopa, (−)-L-α-hydrazino-α-methyl-β-(3,4-dihydroxybenzene) propanoic acid monohydrate]
- reduction of the amount of levodopa required to produce a given response [5]: about 75%
